Experimental data taken from the supplement of paper PMC8612539.
Converted amounts (≈) assume the structure as drawn.

System: Escherichia coli
Experiment: minimum inhibitory concentration (MIC)
Description: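 Broth microdilution MIC (Sensititre BOPO7F bovine plate, CLSI methods) of 19 antimicrobials against field isolates of P. multocida, M. haemolytica, H. somni (deep nasopharyngeal swabs) and E. coli, Enterococcus spp. (rectal swabs) from weaned dairy heifers. Incubation 16-24 h at 35 C. MIC is the lowest concentration preventing visible growth. Values with <= or > lie at the tested range limits. Trimethoprim-sulfamethoxazole is given as the trimethoprim component of a 1:19 mixture.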

COc1cc(NS(=O)(=O)c2ccc(N)cc2)nc(OC)n1 [sulfadimethoxine]
Settings	minimum inhibitory concentration [µg/mL]
isolate (source animal id): 8	> 256
isolate (source animal id): 9	> 256
isolate (source animal id): 10	> 256
isolate (source animal id): 11	≤ 256
isolate (source animal id): 12	> 256
isolate (source animal id): 13	≤ 256
isolate (source animal id): 14	> 256
isolate (source animal id): 15	≤ 256
isolate (source animal id): 16	> 256
isolate (source animal id): 98	≤ 256
isolate (source animal id): 99	≤ 256
isolate (source animal id): 100	> 256
isolate (source animal id): 101	> 256
isolate (source animal id): 102	> 256
isolate (source animal id): 103	> 256
isolate (source animal id): 104	> 256
isolate (source animal id): 105	> 256
isolate (source animal id): 106	> 256
isolate (source animal id): 107	> 256
isolate (source animal id): 108	> 256
isolate (source animal id): 109	≤ 256
isolate (source animal id): 110	> 256
isolate (source animal id): 111	> 256
isolate (source animal id): 112	> 256
isolate (source animal id): 113	> 256
isolate (source animal id): 114	≤ 256
isolate (source animal id): 115	> 256
isolate (source animal id): 116	> 256
isolate (source animal id): 117	> 256
isolate (source animal id): 118	≤ 256
isolate (source animal id): 119	> 256
isolate (source animal id): 120	> 256
isolate (source animal id): 121	> 256
isolate (source animal id): 122	> 256
isolate (source animal id): 123	> 256
isolate (source animal id): 124	> 256
isolate (source animal id): 125	> 256
isolate (source animal id): 126	> 256
isolate (source animal id): 127	> 256
isolate (source animal id): 128	> 256
isolate (source animal id): 129	> 256
isolate (source animal id): 130	> 256
isolate (source animal id): 131	> 256
isolate (source animal id): 132	> 256
isolate (source animal id): 133	> 256
isolate (source animal id): 134	> 256
isolate (source animal id): 135	≤ 256
isolate (source animal id): 136	> 256
isolate (source animal id): 137	≤ 256
isolate (source animal id): 138	> 256
isolate (source animal id): 139	> 256
isolate (source animal id): 140	≤ 256
isolate (source animal id): 141	> 256
isolate (source animal id): 142	> 256
isolate (source animal id): 143	> 256
isolate (source animal id): 144	> 256
isolate (source animal id): 145	> 256
isolate (source animal id): 146	> 256
isolate (source animal id): 147	> 256
isolate (source animal id): 148	> 256
isolate (source animal id): 149	> 256
isolate (source animal id): 150	> 256
isolate (source animal id): 151	> 256
isolate (source animal id): 152	> 256
isolate (source animal id): 153	> 256
isolate (source animal id): 154	> 256
isolate (source animal id): 155	> 256
isolate (source animal id): 156	> 256
isolate (source animal id): 157	> 256
isolate (source animal id): 158	> 256
isolate (source animal id): 159	> 256
isolate (source animal id): 160	> 256
isolate (source animal id): 161	> 256
isolate (source animal id): 162	> 256
isolate (source animal id): 163	> 256
isolate (source animal id): 164	> 256
isolate (source animal id): 165	> 256
isolate (source animal id): 166	> 256
isolate (source animal id): 167	> 256
isolate (source animal id): 168	≤ 256
isolate (source animal id): 169	≤ 256
isolate (source animal id): 170	> 256
isolate (source animal id): 171	≤ 256
isolate (source animal id): 172	≤ 256
isolate (source animal id): 173	> 256
isolate (source animal id): 174	≤ 256
isolate (source animal id): 175	> 256
isolate (source animal id): 176	> 256
isolate (source animal id): 177	> 256
isolate (source animal id): 178	> 256
isolate (source animal id): 179	≤ 256
isolate (source animal id): 180	> 256
isolate (source animal id): 181	> 256
isolate (source animal id): 182	> 256
isolate (source animal id): 183	> 256
isolate (source animal id): 184	> 256
isolate (source animal id): 185	> 256
isolate (source animal id): 186	≤ 256
isolate (source animal id): 187	> 256
isolate (source animal id): 188	> 256

CC1(C)S[C@@H]2[C@H](NC(=O)[C@H](N)c3ccccc3)C(=O)N2[C@H]1C(=O)O [Ampicillin]
Settings	minimum inhibitory concentration [µg/mL]
isolate (source animal id): 8	4 (≈ 11.4 µM)
isolate (source animal id): 9	> 16
isolate (source animal id): 10	2 (≈ 5.72 µM)
isolate (source animal id): 11	4 (≈ 11.4 µM)
isolate (source animal id): 12	> 16
isolate (source animal id): 13	> 16
isolate (source animal id): 14	> 16
isolate (source animal id): 15	2 (≈ 5.72 µM)
isolate (source animal id): 16	4 (≈ 11.4 µM)
isolate (source animal id): 98	4 (≈ 11.4 µM)
isolate (source animal id): 99	4 (≈ 11.4 µM)
isolate (source animal id): 100	2 (≈ 5.72 µM)
isolate (source animal id): 101	1 (≈ 2.86 µM)
isolate (source animal id): 102	2 (≈ 5.72 µM)
isolate (source animal id): 103	> 16
isolate (source animal id): 104	4 (≈ 11.4 µM)
isolate (source animal id): 105	4 (≈ 11.4 µM)
isolate (source animal id): 106	2 (≈ 5.72 µM)
isolate (source animal id): 107	2 (≈ 5.72 µM)
isolate (source animal id): 108	4 (≈ 11.4 µM)
isolate (source animal id): 109	2 (≈ 5.72 µM)
isolate (source animal id): 110	4 (≈ 11.4 µM)
isolate (source animal id): 111	2 (≈ 5.72 µM)
isolate (source animal id): 112	2 (≈ 5.72 µM)
isolate (source animal id): 113	4 (≈ 11.4 µM)
isolate (source animal id): 114	4 (≈ 11.4 µM)
isolate (source animal id): 115	> 16
isolate (source animal id): 116	2 (≈ 5.72 µM)
isolate (source animal id): 117	2 (≈ 5.72 µM)
isolate (source animal id): 118	4 (≈ 11.4 µM)
isolate (source animal id): 119	8 (≈ 22.9 µM)
isolate (source animal id): 120	> 16
isolate (source animal id): 121	2 (≈ 5.72 µM)
isolate (source animal id): 122	1 (≈ 2.86 µM)
isolate (source animal id): 123	2 (≈ 5.72 µM)
isolate (source animal id): 124	4 (≈ 11.4 µM)
isolate (source animal id): 125	2 (≈ 5.72 µM)
isolate (source animal id): 126	8 (≈ 22.9 µM)
isolate (source animal id): 127	2 (≈ 5.72 µM)
isolate (source animal id): 128	> 16
isolate (source animal id): 129	4 (≈ 11.4 µM)
isolate (source animal id): 130	4 (≈ 11.4 µM)
isolate (source animal id): 131	2 (≈ 5.72 µM)
isolate (source animal id): 132	> 16
isolate (source animal id): 133	4 (≈ 11.4 µM)
isolate (source animal id): 134	4 (≈ 11.4 µM)
isolate (source animal id): 135	2 (≈ 5.72 µM)
isolate (source animal id): 136	4 (≈ 11.4 µM)
isolate (source animal id): 137	4 (≈ 11.4 µM)
isolate (source animal id): 138	4 (≈ 11.4 µM)
isolate (source animal id): 139	1 (≈ 2.86 µM)
isolate (source animal id): 140	4 (≈ 11.4 µM)
isolate (source animal id): 141	4 (≈ 11.4 µM)
isolate (source animal id): 142	4 (≈ 11.4 µM)
isolate (source animal id): 143	> 16
isolate (source animal id): 144	> 16
isolate (source animal id): 145	8 (≈ 22.9 µM)
isolate (source animal id): 146	2 (≈ 5.72 µM)
isolate (source animal id): 147	> 16
isolate (source animal id): 148	2 (≈ 5.72 µM)
isolate (source animal id): 149	2 (≈ 5.72 µM)
isolate (source animal id): 150	4 (≈ 11.4 µM)
isolate (source animal id): 151	1 (≈ 2.86 µM)
isolate (source animal id): 152	2 (≈ 5.72 µM)
isolate (source animal id): 153	> 16
isolate (source animal id): 154	4 (≈ 11.4 µM)
isolate (source animal id): 155	2 (≈ 5.72 µM)
isolate (source animal id): 156	> 16
isolate (source animal id): 157	4 (≈ 11.4 µM)
isolate (source animal id): 158	4 (≈ 11.4 µM)
isolate (source animal id): 159	2 (≈ 5.72 µM)
isolate (source animal id): 160	4 (≈ 11.4 µM)
isolate (source animal id): 161	2 (≈ 5.72 µM)
isolate (source animal id): 162	> 16
isolate (source animal id): 163	4 (≈ 11.4 µM)
isolate (source animal id): 164	4 (≈ 11.4 µM)
isolate (source animal id): 165	2 (≈ 5.72 µM)
isolate (source animal id): 166	2 (≈ 5.72 µM)
isolate (source animal id): 167	4 (≈ 11.4 µM)
isolate (source animal id): 168	2 (≈ 5.72 µM)
isolate (source animal id): 169	4 (≈ 11.4 µM)
isolate (source animal id): 170	4 (≈ 11.4 µM)
isolate (source animal id): 171	4 (≈ 11.4 µM)
isolate (source animal id): 172	2 (≈ 5.72 µM)
isolate (source animal id): 173	> 16
isolate (source animal id): 174	> 16
isolate (source animal id): 175	4 (≈ 11.4 µM)
isolate (source animal id): 176	> 16
isolate (source animal id): 177	> 16
isolate (source animal id): 178	4 (≈ 11.4 µM)
isolate (source animal id): 179	4 (≈ 11.4 µM)
isolate (source animal id): 180	4 (≈ 11.4 µM)
isolate (source animal id): 181	2 (≈ 5.72 µM)
isolate (source animal id): 182	2 (≈ 5.72 µM)
isolate (source animal id): 183	4 (≈ 11.4 µM)
isolate (source animal id): 184	4 (≈ 11.4 µM)
isolate (source animal id): 185	4 (≈ 11.4 µM)
isolate (source animal id): 186	4 (≈ 11.4 µM)
isolate (source animal id): 187	> 16
isolate (source animal id): 188	> 16
